# Data from patent publication US20210330596A1, “PHARMACEUTICAL COMPOSITION FOR USE IN A COMBINATION WITH CA[…] ENHANCE BENEFITS OF CA[…] SUPPORT HUMAN ENDOCANNABINOID SYSTEM” (priority 2020, published 2021).
# Several values for one entry are separate records, joined by “and”; a condition that tells them apart may be missing. Equal values may be shown once.
# System: mice's endocannabinoid system
# Assay: maze and food trial: time the mice need to solve the maze after feed
# Assay type: in vivo
# Conditions: for time to solve the maze, Time 0, individual mouse / time to solve the maze, Time 0, Average: 10 minutes after feed; for time to solve the maze, Time 0, individual mouse / time to solve the maze, Time 1, individual mouse: mouse # 1-10 in table order; for time to solve the maze, Time 0, Average / time to solve the maze, Time 1, Average: ten mice; for time to solve the maze, Time 1, individual mouse / time to solve the maze, Time 1, Average: 120 minutes after feed
# Description: In an embodiment, the pharmaceutical composition of the present invention relates to an essential oil rich composition that supports the endocannabinoid system. Following tables 1-5 describe trials conducted with ten mice (Wistar) utilizing a maze and food to determine how long on average the mice solves the maze at 10 and 120 minutes after starting the experiment.
# Table 1 is the base when the mice learned the experiment. It took 7 days of training (4 repetitions per day) to get the base time for each mice.
# The Average Time results were statistically slower to the Control (Table 3) results with a standard deviation of less than 3%. The slowness with which the mice solved the maze leads us to believe either the embodiment has some entourage effect (as described by Ben-Shabat et. Al. in the European Journal of Pharmacology, 1998) or has supported the endocannabinoid system in mice because the mice took at least as long to solve the maze as before they developed tolerance to THC. The Entourage Effect was also described by Russo et. al. in his paper “Taming THC: potential cannabis synergy and phytocannabinoid-terpenoid entourage effects”, published in the British Journal of Pharmacology, 2011 August; 163(7): 1344-1364.
# In this Table we see the results of THC 24 hours after the embodiment was administered. Mice on average take 1-5 hours to digest food. It is estimated that mice will have completely metabolized the embodiment after 24 hours. After THC was administered but now without the embodiment, mice are experiencing the same heightened effects of THC as in FIG. 4, even after the embodiment was not present in their body after a 24 hour period.
# [1] = Day 1 CONTROL, 0.3 mgTHC/kg, before tolerance
# [2] = Day 14 BASELINE 2 (acquired tolerance), 0.3 mgTHC/kg/day
# [3] = TRIAL 2, 0.3 mgTHC + 0.0 mg embodiment/kg, THC 24 hours after the embodiment was administered
smiles,measurement,setting,value
"CCCCCc1cc(O)c2c(c1)OC(C)(C)[C@@H]1CCC(C)=C[C@@H]21 [THC, Tetrahydrocannabinol]","time to solve the maze, Time 0, individual mouse",[1],16 ± 3 minutes and 17 ± 3 minutes (2×) and 23 ± 3 minutes and 20 ± 3 minutes and 25 ± 3 minutes and 30 ± 3 minutes and 26 ± 3 minutes and 19 ± 3 minutes and 24 ± 3 minutes
same,"time to solve the maze, Time 0, Average",[1],22 ± 3 min
same,"time to solve the maze, Time 1, individual mouse",[1],14 ± 3 minutes (2×) and 10 ± 3 minutes (2×) and 19 ± 3 minutes (2×) and 22 ± 3 minutes (2×) and 21 ± 3 minutes and 16 ± 3 minutes
same,"time to solve the maze, Time 1, Average",[1],17 ± 3 min
same,"time to solve the maze, Time 0, individual mouse",[2],16 ± 3 minutes (2×) and 19 ± 3 minutes (2×) and 18 ± 3 minutes (2×) and 14 ± 3 minutes and 13 ± 3 minutes and 12 ± 3 minutes and 11 ± 3 minutes
same,"time to solve the maze, Time 0, Average",[2],14 ± 3 min
same,"time to solve the maze, Time 1, individual mouse",[2],14 ± 3 minutes and 15 ± 3 minutes (2×) and 12 ± 3 minutes and 10 ± 3 minutes (4×) and 11 ± 3 minutes (2×)
same,"time to solve the maze, Time 1, Average",[2],12 ± 3 min
same,"time to solve the maze, Time 0, individual mouse",[3],27 ± 3 minutes (2×) and 20 ± 3 minutes and 22 ± 3 minutes (2×) and 17 ± 3 minutes and 16 ± 3 minutes and 21 ± 3 minutes and 18 ± 3 minutes and 29 ± 3 minutes
same,"time to solve the maze, Time 0, Average",[3],22 ± 3 min
same,"time to solve the maze, Time 1, individual mouse",[3],22 ± 3 minutes and 19 ± 3 minutes (2×) and 16 ± 3 minutes and 23 ± 3 minutes and 15 ± 3 minutes and 12 ± 3 minutes and 9 ± 3 minutes and 17 ± 3 minutes and 20 ± 3 minutes
same,"time to solve the maze, Time 1, Average",[3],17 ± 3 min
same,"maze solved faster on average than the Control Time, T0","after 15 days of daily THC dose of 0.3 mgTHC/kg, Time 0 (10 minutes after feed), tolerance to THC",40%
same,"maze solved faster on average than the Control Time, T1","after 15 days of daily THC dose of 0.3 mgTHC/kg, Time 1 (120 minutes after feed), tolerance to THC",up to 60%
